“Also recorded” adds a separate entry of the source. Read-outs that look alike come from different tables or passages of the source.

The conditions of data set [1]: humans; ref IARC (1994b); cited from earlier work.
A further data set relates to CYP450. As to the kind of experiment: EO incubation in pooled rat liver microsomes with NADPH-regenerating system. The format is in vitro ADME, Fischer 344 rats. The conditions noted are these: rat liver microsomal incubation with NADPH-regenerating system.
For a further data set, the system named is GSH levels in the livers. The conditions noted are these: Fischer rats exposed for 4 h to 1200 ppm EO; ref McKelvey and Zemaitis (1986); cited from earlier work.
The conditions of data set [2]: rat; ref Dunkelberg, 1982; Garman et al., 1985; Snellings et al., 1984; cited from earlier work.
For data set [3] the following is noted: mouse; ref Dunkelberg, 1981; National Toxicology Program, 1987; cited from earlier work.
For data set [4], the system named is glutathione S-transferase (GST). Briefly: GST-mediated EO elimination in human liver cytosol. Type of data set: in vitro ADME. The conditions noted are these: human pooled liver cytosol; taking a Km of 9 mmol/l.
For data set [5] the test system is unchanged. As to the kind of experiment: GST-mediated EO elimination in mouse lung cytosol. The format is in vitro ADME, B6C3F1 mice. The conditions noted are these: taking a Km of 9 mmol/l.
The nature of a further data set: Spontaneous. The conditions noted are these: MgCl2 containing potassium phosphate buffer pH 7.4, 37°C. Type of data set: physicochemical.
For data set [6], the target named is T1, epoxide hydrolase (EH) (Homo sapiens, UniProt P07099).
T1 sequence (P07099 1-455): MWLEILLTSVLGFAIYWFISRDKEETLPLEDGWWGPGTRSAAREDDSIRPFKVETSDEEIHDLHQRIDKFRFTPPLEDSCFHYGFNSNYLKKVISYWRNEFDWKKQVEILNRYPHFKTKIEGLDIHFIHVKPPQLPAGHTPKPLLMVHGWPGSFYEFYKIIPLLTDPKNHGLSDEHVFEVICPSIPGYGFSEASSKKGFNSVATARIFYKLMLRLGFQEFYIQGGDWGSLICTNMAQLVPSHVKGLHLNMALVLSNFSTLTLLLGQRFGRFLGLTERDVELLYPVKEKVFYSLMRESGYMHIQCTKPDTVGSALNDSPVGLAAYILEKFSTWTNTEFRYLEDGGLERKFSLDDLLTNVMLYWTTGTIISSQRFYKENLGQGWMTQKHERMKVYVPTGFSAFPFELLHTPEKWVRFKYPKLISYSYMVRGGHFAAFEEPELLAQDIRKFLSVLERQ
Briefly: EO elimination in human liver microsomes. The conditions noted are these: pooled native human liver microsomes, best fit (Berkeley Madonna).

Data set [7] relates to glutathione S-transferase (GST). Briefly: GST-mediated EO elimination in mouse liver cytosol. Type of data set: in vitro ADME, B6C3F1 mice. The conditions noted are these: mouse pooled liver cytosol; taking a Km of 9 mmol/l.
Data set [8] addresses T2, epoxide hydrolase (EH) (Rattus norvegicus, UniProt P07687).
T2 sequence (P07687 1-455): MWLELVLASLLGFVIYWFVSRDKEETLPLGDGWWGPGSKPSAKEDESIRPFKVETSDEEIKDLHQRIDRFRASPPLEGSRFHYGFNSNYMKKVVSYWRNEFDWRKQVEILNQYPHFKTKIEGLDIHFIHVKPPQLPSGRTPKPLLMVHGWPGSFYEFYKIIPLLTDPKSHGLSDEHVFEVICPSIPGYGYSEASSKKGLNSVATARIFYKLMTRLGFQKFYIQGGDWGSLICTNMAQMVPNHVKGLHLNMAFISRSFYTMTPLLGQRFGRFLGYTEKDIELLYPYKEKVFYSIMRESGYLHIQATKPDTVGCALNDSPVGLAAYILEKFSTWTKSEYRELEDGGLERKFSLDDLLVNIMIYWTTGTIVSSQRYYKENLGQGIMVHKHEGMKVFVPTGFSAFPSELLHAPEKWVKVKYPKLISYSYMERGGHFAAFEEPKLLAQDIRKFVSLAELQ
Briefly: EO elimination in rat liver microsomes. The format is in vitro ADME, Fischer 344 rats. The conditions noted are these: native pooled rat liver microsomes vs heat-inactivated, 5 mg protein/ml.

Data set [9] has as its system glutathione S-transferase (GST). As to the kind of experiment: GST-mediated EO elimination in rat lung cytosol. The format is in vitro ADME, Fischer 344 rats. The conditions noted are these: taking a Km of 9 mmol/l.
The target in data set [10] is T2, epoxide hydrolase (EH). Briefly: EO elimination in rat lung microsomes. Type of data set: in vitro ADME, Fischer 344 rats. The conditions noted are these: native pooled rat lung microsomes vs heat-inactivated, 5 mg protein/ml.
Data set [11] concerns glutathione S-transferase (GST). Briefly: GST-mediated EO elimination in rat liver cytosol. Type of data set: in vitro ADME, Fischer 344 rats. The conditions noted are these: rat pooled liver cytosol; taking a Km of 9 mmol/l.
In data set [12] the target is T3, epoxide hydrolase (EH) (Mus musculus, UniProt Q9D379).
T3 sequence (Q9D379 1-455): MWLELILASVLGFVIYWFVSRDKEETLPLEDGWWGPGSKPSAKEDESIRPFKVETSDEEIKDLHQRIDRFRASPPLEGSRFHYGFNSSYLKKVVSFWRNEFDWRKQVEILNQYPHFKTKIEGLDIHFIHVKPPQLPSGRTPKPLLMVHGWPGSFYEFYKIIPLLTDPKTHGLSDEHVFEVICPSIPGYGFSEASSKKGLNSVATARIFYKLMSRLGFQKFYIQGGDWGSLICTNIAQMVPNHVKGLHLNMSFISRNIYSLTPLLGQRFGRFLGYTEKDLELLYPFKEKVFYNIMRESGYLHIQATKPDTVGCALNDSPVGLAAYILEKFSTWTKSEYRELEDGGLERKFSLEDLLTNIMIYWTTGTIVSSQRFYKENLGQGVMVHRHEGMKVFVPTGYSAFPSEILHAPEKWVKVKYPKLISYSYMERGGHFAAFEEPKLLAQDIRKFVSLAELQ
Briefly: EO elimination in mouse liver microsomes. Type of data set: in vitro ADME, B6C3F1 mice. The conditions noted are these: native pooled mouse liver microsomes vs heat-inactivated, 5 mg protein/ml. Background: Liver microsomes are vesicles of endoplasmic reticulum, rich in cytochrome P450 enzymes.

The conditions of data set [13]: calculated from the data of ref Brown et al. (1996); cited from earlier work.
Data set [14] concerns the target T3, epoxide hydrolase (EH). Briefly: EO elimination in mouse lung microsomes. The conditions noted are these: native pooled mouse lung microsomes vs heat-inactivated, 5 mg protein/ml. Type of data set: in vitro ADME, B6C3F1 mice.
Data set [15] can be described thus: Nonenzymatic conjugation with GSH. The format is physicochemical. The conditions noted are these: GSH 15 mmol/l, 37°C, pH 7.4.

Take `C1CO1` [EO, ethylene oxide]: the IARC evaluation result in data set [1] is listed as “carcinogenic to humans”. The “CYP-mediated EO elimination” value in the data set on CYP450 is given as “no CYP-mediated EO elimination was detected”. For the same molecule, the “GSH levels in the livers” value in the data set with GSH levels in the livers is given as “less than 20 % of the control value”. The carcinogenicity result in data set [2] and in [3] was “carcinogenic” throughout. Besides, the “Vmax of GST-mediated GSH conjugation with EO” value was 10.3 nmol/min/mg protein in data set [4]; 56.9 nmol/min/mg protein in data set [5]; 251 nmol/min/mg protein in data set [7]; 16.0 nmol/min/mg protein in data set [9]; 47.7 nmol/min/mg protein in [11]. For the same molecule, the “mean half-life of spontaneous hydrolysis” value in “Spontaneous” turned out to be 12.4 h. In addition, in “Spontaneous” (mean ± SE, n = 36), the “rate constant of the spontaneous hydrolysis” value is 0.00093 ± 7e-05 min⁻¹. In addition, the “Vmax of EO elimination” value on epoxide hydrolase (EH) [6] was determined as 14.35 nmol/min/mg protein. Besides, the “EH-catalyzed EO elimination” value is “not detectable; also recorded: no EH-catalyzed EO elimination was found” on epoxide hydrolase (EH) [8], “no EH-catalyzed EO elimination was found” on epoxide hydrolase (EH) [10], “not detectable; also recorded: no EH-catalyzed EO elimination was found” on epoxide hydrolase (EH) [12] and “no EH-catalyzed EO elimination was found” on epoxide hydrolase (EH) [14]. For the same molecule, the “rate constant of the nonenzymatic elimination” value in data set [13] was 0.001 min⁻¹. For the same molecule, in [15], the “mean half-life of nonenzymatic conjugation with GSH” value was found to be 3.7 h.

The record behind these values is article PMC3179684 (Toxicological Sciences, 2011).
